Measurements taken from patent US20190225650A1, “PEPTIDOMIMETIC MACROCYCLES AND USE THEREOF IN REGULATING HIF1ALPHA” (AILERON THERAPEUTICS, INC., priority 2013, published 2019).
Bridge positions count the residues as written; N and C are the ends. Square brackets hold non-standard residues; d marks the D form. Peptide text beside a SMILES is read from it. S5 = C=CCCC[C@](C)(N)C(=O)O; Nle = CCCC[C@H](N)C(=O)O

Target: T1, flag-tagged HIF1α (AA 786-826) / His6-tagged p300 (AA 323-423) complex (Homo sapiens, UniProt Q09472)
T1 construct: His6-tagged p300 (AA 323-423); made in house; host or cells: E. coli (pETDuet vector)
Assay: HIF1α p300 displacement assay (TR FRET, +CHAPS)
Format: binding
Conditions: read-out: IC50 (nM) (HIF1α_p300 Displacement + CHAPS)
Experimental: The ability of peptides to displace HIF1α c-terminal trans-activation domain from p300-CH was measured by a TR FRET assay. A complex of flag-tagged HIF1α (AA 786-826) and His6-tagged p300 (AA 323-423) was co-expressed using pETDuet vector (EMDMillipore, Bellrica Mass.) and purified from E. coli in the presence of 0.1 mM ZnSO4. The complex was diluted to 300 nM final in complete assay media and competitor peptides were added. The complete assay media contained 150 mM NaCl (Sigma +S5150 or equivalent), 20 mM HEPES pH 7.4 (Boston Bioproducts, Ashland, Mass.; #BB-2076), 7.5 mM CHAPS (Thermo #28300 or equivalent), and 1 mM DTT. Protein and peptide were incubated at room temperature for 1 hour before the addition of anti-Flag-K and anti-6×HIS-D2 (CisBio, Bedford Mass.) HTRF reconstitution buffer (50 mM Phosphate pH 7, 0.8 Potassium Flouride, BSA 0.2%)^1 to a final concentration of 0.5 μM and 4 nM respectively. […] The reaction was read on a TECAN F500 plate reader with settings recommended by CisBio. The ratio of donor to acceptor fluorescence was calculated. The resulting data was analyzed with Graphpad Prism 5.0. IC50 values were calculated for both proteins using the One Site Fit-LogIC50 equation and presented in the column “IC50 (nM) (HIF1α_p300 Displacement+CHAPS)” of Table 6. ^1 Cisbio USA, Bedford, Mass.; 61HISDLB (lot 007A), 61FG2KLB (024A), HTRF Buffer (62RB3RDF)

Compound: CCCC[C@H](NC(=O)[C@H](C)NC(=O)[C@@H](NC(=O)[C@@H](NC(=O)[C@H](CC(C)C)NC(=O)[C@]1(C)CCCC=CCCC[C@](C)(NC(=O)[C@H](CCC(=O)O)NC(=O)[C@H](CC(=O)O)NC(=O)[C@@H](NC(=O)[C@H](Cc2ccccc2)NC(C)=O)[C@@H](C)CC)C(=O)N[C@@H](C(C)C)C(=O)N[C@@H](CC(C)C)C(=O)N[C@@H](CCCC)C(=O)N1)C(C)C)[C@@H](C)CC)C(=O)N[C@@H](C)C(=O)N[C@@H](CC(C)C)C(=O)N[C@@H](CO)C(=O)N[C@@H](CO)C(=O)N[C@H](C(N)=O)[C@@H](C)CC [SP-129] (Ac-FIDE[S5]VL[Nle][S5]LVIA[Nle]ALSSI-NH2; staple 5-9)
- IC50: > 700 nM
